From US20230398125A1, “TREATING HEPATITIS” (Albireo AB, priority 2022, published 2023) come the findings set out here.

For data set [1], the system named is HBV (HepG2 AD38 genotype D). Kind of data set: HBV infection of primary human hepatocytes, extracellular HBV DNA by qPCR. Format: cell-based, hepatitis B virus. The conditions noted are these: for EC50: Hepatitis B virus, read-out: EC50. On the technique in general: Real-time PCR tracks product formation cycle by cycle.
Data set [2] in a line: XTT cell toxicity in primary human hepatocytes. It is filed as cell-based. The following applies: human, primary human hepatocytes, read-out: TC50. The protocol:
Multiplicity of Infection (MOI) is defined as the number of HBV genome equivalents, as determined by the qPCR quantitation, added per cell in the respective growth format. The overnight media was removed from the cells and replaced with 190 μL of new, serum-free HI media/4% PEG8000 and 10 μL of the diluted virus stock (HepG2 AD38 genotype D) for a MOI of 500. Medium alone was added to the cells containing compound for the parallel cytotoxicity evaluation. After 18 hours of virus infection, the cells were gently washed five times with DPBS, followed by a new addition of 200 μL HI media containing compounds on day 1, day 4 and day 7 post-infection. In one set of experiments (Study #01), the effect of giving compound 18 h prior to infection, versus 18 h post-infection was studied. The supernatant removed from the cytotoxicity plates at each medium change was stored at −20° C. for shipment to the client. The supernatant was collected at 10 days post infection and stored at −20° C. for total extracellular HBV DNA copy number to be quantitatively determined by qPCR. Cell viability was measured by XTT tetrazolium dye at day 10 for the cytotoxicity plates.
Following incubation at 37° C. in a 5% CO2 incubator for ten days, the test plates were stained with the tetrazolium dye XTT (2,3-bis(2-methoxy-4-nitro-5-sulfophenyl}-5-[(phenylamino)carbonyl]-2H-tetrazolium hydroxide). XTT-tetrazolium was metabolized by the mitochondrial enzymes of metabolically active cells to a soluble formazan product. XTT solution was prepared daily as a stock of 1 mg/mL in RPMI1640. Phenazine methosulfate (PMS) solution was prepared at 0.15 mg/mL in PBS and stored in the dark at −20° C.
XTT/PMS stock was prepared immediately before use by adding 40 μL of PMS per mL of XTT solution. Fifty microliters of XTT/PMS were added to each well of the plate and the plate was re-incubated for 4 hours at 37° C. Plates were sealed with adhesive plate sealers and shaken gently or inverted several times to mix the soluble formazan product and the plate was read spectrophotometrically at 450/650 nm with a Molecular Devices Vmax plate reader.
Each concentration of inhibitor and controls were analyzed in triplicate for HBV DNA copies and for cellular toxicity, respectively. From control wells without inhibitor, the mean of these three replicates was calculated and the HBV DNA mean was set to 100% viral control and the XTT mean was set to 100% cell viability. The effect of compound was then expressed as % of viral control and % cell viability, respectively.
A general note: Tetrazolium dyes change colour on reduction, which living cells bring about.

Data set [3] is described as follows: Oral pharmacokinetics of Compound 2 in mice, rats and dogs. It is filed as in vivo. The conditions noted are these: across all species. As for the experimental part: (§1) NTCP and the related BA transporter apical sodium-dependent BA transporter (ASBT) from human were expressed in cell lines. Inhibition by Compound 2 was studied using [^3]taurocholate as substrate. Cryopreserved human hepatocytes infected with a clinical isolate of HBV were used for infection experiments. Two female non-human primates (NHPs) were dosed with Compound 2 via oral gavage at dose levels of Compound 2 ranging between 3-30 mg/kg once daily for 5 days. Total serum, urine, and fecal BAs were analyzed enzymatically and Compound 2 plasma concentrations were assessed via liquid chromatography-tandem mass spectrometry. The oral pharmacokinetics of Compound 2 was also studied in mice, rats, and dogs.

Data set [4] is described as follows: Serum, urine and fecal bile acids and C4 in non-human primates after oral dosing. It is filed as in vivo. The conditions noted are these: NHPs. As for the experimental part: as §1
Data set [5] in a line: Plasma concentrations of Compound 2 in non-human primates. It is filed as in vivo. The following applies: NHPs, 3-30 mg/kg oral once daily for 5 days. The protocol:
as §1

A further data set relates to human hepatocytes. Kind of data set: Cell viability of human hepatocytes (Compound 2). It is filed as cell-based.
Another data set concerns the target T1, ASBT (Homo sapiens, UniProt Q12908).
T1 construct: expressed in transfected cells
T1 sequence (Q12908 1-348): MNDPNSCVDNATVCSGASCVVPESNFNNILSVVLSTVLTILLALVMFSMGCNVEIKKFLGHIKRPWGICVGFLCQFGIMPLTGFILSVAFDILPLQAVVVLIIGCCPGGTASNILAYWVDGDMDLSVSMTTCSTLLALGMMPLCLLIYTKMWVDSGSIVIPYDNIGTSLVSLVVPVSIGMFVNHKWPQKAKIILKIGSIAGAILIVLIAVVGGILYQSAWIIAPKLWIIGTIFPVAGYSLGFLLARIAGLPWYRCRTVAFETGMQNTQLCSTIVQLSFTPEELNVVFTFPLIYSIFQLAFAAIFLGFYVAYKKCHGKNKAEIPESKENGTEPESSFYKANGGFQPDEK
The data set can be described thus: [3H]taurocholate uptake in cell lines expressing human ASBT (Compound 2). Format: cell-based. The protocol: as §1

For the next data set, the target named is T2, Human NTCP (Homo sapiens, UniProt Q14973).
T2 construct: expressed in transfected cells; peptide purchased from Pharmaron
T2 sequence (Q14973 1-349): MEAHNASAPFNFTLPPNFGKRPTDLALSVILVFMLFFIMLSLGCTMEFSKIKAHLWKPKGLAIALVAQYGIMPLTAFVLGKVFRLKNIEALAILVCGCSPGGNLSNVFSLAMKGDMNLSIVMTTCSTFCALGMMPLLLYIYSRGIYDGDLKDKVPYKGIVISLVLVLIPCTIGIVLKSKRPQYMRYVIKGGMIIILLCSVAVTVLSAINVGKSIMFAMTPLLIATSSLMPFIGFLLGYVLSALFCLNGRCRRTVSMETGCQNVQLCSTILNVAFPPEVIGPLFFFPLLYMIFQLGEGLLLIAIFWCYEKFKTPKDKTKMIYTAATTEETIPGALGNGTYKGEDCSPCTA
Kind of data set: [3H]taurocholate uptake in cell lines expressing human NTCP (Compound 2). It is filed as cell-based. As for the experimental part: as §1

The subject of the next data set is HBV (clinical isolate). Kind of data set: HBV infection of cryopreserved human hepatocytes (Compound 2). It is filed as cell-based. The conditions noted are these: Hepatitis B virus, Hepatocyte. The protocol: as §1

SMILES strings stand for the structures. Structures can show the parent of a compound that is named as a salt. Where two headings read alike, the source gives them in different places.

For the compound `CC(C)OC(=O)OCOP(=O)(CO[C@H](C)Cn1cnc2c(N)ncnc21)OCOC(=O)OC(C)C` [Tenofovir disoproxil fumarate, reference compound], the EC50 was 20 nM in data set [1] (HepG2, 18 h, Study #01, compound given 18 h post-infection); 43 nM in data set [1] (HepG2, Study #01, compound given 18 h prior to infection, PHH, HBV DNA); 64 nM in data set [1] (HepG2, Study #02, PHH); 59 nM in data set [1] (HepG2, Study #03, PHH). For the same compound, in [1] (Study #01), the “antiviral activity/potency when given 18 h post-infection” value is recorded as “maintained”. Moreover, the Max inhibition in data set [1] (Study #01, 18 h post-infection) is listed as 97%; in data set [1] (Study #01, 18 h prior to infection), 96%; in [1] (Study #02), 68%; in data set [1] (Study #03), 61%; in data set [1] (Study #03, listed as tenofovir), about 60%. For the same compound, the CC50 at 10 days in data set [2] (Study #01, 18 h post-infection section) is over 1000 nM; in [2] (Study #01, XTT, PHH), over 1000 nM; in data set [2] (Study #02), over 100 nM; in [2] (Study #03) it was over 100 nM.

As for `CCCCC1CN(c2ccc(F)cc2)c2cc(SC)c(OCC(C)(C)C(=O)O)cc2S(=O)(=O)N1C` (stereo not drawn) [Compound 2, 3-((3-butyl-5-(4-fluorophenyl)-2-methyl-7-(methylthio)-1,1-dioxido-2,3,4,5-tetrahydro-1,2,5-benzothiadiazepin-8-yl)oxy)-2,2-dimethylpropanoic acid], the oral bioavailability result in data set [3] is listed as “Good oral bioavailability”. For the same compound, the “levels of fecal BAs” value in [4] was “did not change”. For the same compound, the “urine excretion of BAs compared with vehicle” value in data set [4] is recorded as “tended to increase”. Besides, the figures for the “serum BAs at 24 hours post-dose” value in [4] (10 mg/kg) and in data set [4] (30 mg/kg) were “returned to baseline” and “still being elevated”, respectively. Besides, in data set [4] (10 and 30 mg/kg, Day 1 and Day 5), the “duration of increases in serum BAs” value was “at least 8 hours”. Further, the “levels of 7-alpha-hydroxy-4-cholesten-3-one (C4)” value in data set [4] (after 5 days of repeated dosing) is listed as “did not change”. The “serum BAs” value in [4] (oral dosing, Day 1 and Day 5) is “increased in a dose-dependent manner”. Further, in [5], the “plasma exposure versus dose” value was “increased with dose”. Besides, the “effect on cell viability” value in the data set with human hepatocytes is given as “without affecting cell viability”. For the same compound, the IC50 against ASBT amounted to 193 nM; against Human NTCP, 3.4 nM; in the data set on HBV (clinical isolate), 13.5 nM.

Usually EC50 stands for the midpoint of the concentration-response curve. Broadly, the IC50 is the midpoint of a concentration-inhibition curve. A high value points to weaker potency in that assay.
